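Following 48 hours of exposure in 96-well plates, responses at five concentrations were used to interpolate endpoints linearly. GI50 is the concentration that inhibits growth by half.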 Active and inactive are the calls of the source. No stated cut-off is given here; in the data, active = GI50 up to about 1.1 µM and inactive = higher.
Tests used:
Assay in all cases: inhibition of tumour cell growth, NCI panel, 48 h
BT-549 = tested on: BT-549
MDA-MB-435 = tested on: MDA-MB-435
MDA-N = tested on: MDA-N
DU-145 = tested on: DU-145
DLD-1 = tested on: DLD-1
DMS-273 = tested on: DMS-273
DMS-114 = tested on: DMS-114
HOP-18 = tested on: HOP-18
RXF 631 = tested on: RXF 631

SMILES	GI50 (BT-549)	GI50 (MDA-MB-435)	GI50 (MDA-N)	GI50 (DU-145)	GI50 (DLD-1)	GI50 (DMS-273)	GI50 (DMS-114)	GI50 (HOP-18)	GI50 (RXF 631)
CNC(=O)CNC(=O)CCC(=O)N(C)C	> 100 µM (inactive)	> 100 µM (inactive)	> 100 µM (inactive)	> 100 µM (inactive)	–	–	–	–	–
Cc1cc(=O)n2nc(CSc3nnc(S)s3)sc2n1	> 100 µM (inactive)	> 100 µM (inactive)	> 100 µM (inactive)	> 100 µM (inactive)	–	–	–	–	–
O=c1ccc2nc3cc(Br)ccc3sc-2c1	–	–	–	–	82.8 µM (inactive)	> 100 µM (inactive)	> 100 µM (inactive)	–	–
CSc1nc(Cl)c2c(n1)Sc1ncnn1C2O (stereo not given)	11.4 µM (inactive)	4.57 µM (inactive)	7.13 µM (inactive)	7.08 µM (inactive)	–	–	–	–	–
COC1CCC(O)C(CO)O1 (stereo not given)	–	–	–	–	> 100 µM (inactive)	–	–	–	–
c1ccc2c(c1)SP1Sc3ccccc3P21 (stereo not given)	–	–	–	–	> 92.5 µM (inactive)	> 100 µM (inactive)	> 79.3 µM (inactive)	18.1 µM (inactive)	–
O=C1C(=Cc2cccc(O)c2)N=C(c2ccccc2)N1n1c(-c2ccccc2)nc2ccccc2c1=O	–	35.6 µM (inactive)	–	27.7 µM (inactive)	–	–	–	–	–
COc1cc(C2c3cc4c(cc3[C@@H](Nc3ccc5c(c3)OCO5)C3COC(=O)[C@H]23)OCO4)cc(OC)c1O (stereo not given in full)	–	–	–	–	1.55 µM (inactive)	0.105 µM (active)	–	0.766 µM (active)	–
Cc1cccc(C(C)C)c1NC(=O)CC1Sc2ccccc2NC1=O (stereo not given)	–	–	–	–	> 100 µM (inactive)	45.8 µM (inactive)	23.4 µM (inactive)	> 100 µM (inactive)	85.1 µM (inactive)
CC1=C(C)SC(=C2Sc3c(n(C)c(=O)[nH]c3=O)S2)S1	> 100 µM (inactive)	> 100 µM (inactive)	> 100 µM (inactive)	> 100 µM (inactive)	–	–	–	–	–
O=C(CCC1C(=O)NC(=S)NC1=O)c1ccc2ccccc2c1	–	–	–	–	> 100 µM (inactive)	> 100 µM (inactive)	> 100 µM (inactive)	> 100 µM (inactive)	–
Cc1ccc2c(c1)C(=O)N(N(C)C)CC(=O)N2	–	–	–	–	> 100 µM (inactive)	> 100 µM (inactive)	> 100 µM (inactive)	> 100 µM (inactive)	–
COc1ccc(C2CC(c3c(O)ccc4ccccc34)=NN2)cc1OC (stereo not given)	3.92 µM (inactive)	2.96 µM (inactive)	3.95 µM (inactive)	5.71 µM (inactive)	–	–	–	–	–
CC(C)C[C@@H](NC(=O)[C@@H](Cc1cccc2ccccc12)NC(=O)N1CCOCC1)B(O)O	36.3 µM (inactive)	20.8 µM (inactive)	20.7 µM (inactive)	> 100 µM (inactive)	–	–	–	–	–
[O-][n+]1c2c([n+]([O-])c3ccccc31)-c1cccc3cccc-2c13	–	> 100 µM (inactive)	> 100 µM (inactive)	> 100 µM (inactive)	–	–	–	–	–
O=C(O)C12CCCC(CCC1)C2	–	–	–	–	> 100 µM (inactive)	> 100 µM (inactive)	> 100 µM (inactive)	–	> 100 µM (inactive)
CN(C)/C(=N\C#N)NCc1ccccc1	–	–	–	–	> 100 µM (inactive)	> 100 µM (inactive)	–	–	–
CC(NNC(=O)c1cc[n+]([BH2-]C#N)cc1)c1ccccc1F (stereo not given)	> 100 µM (inactive)	> 100 µM (inactive)	> 100 µM (inactive)	> 100 µM (inactive)	–	–	–	–	–
CN(C)CCCNC(=O)N/N=C/c1ccccn1	–	–	> 10 µM (inactive)	> 10 µM (inactive)	–	–	–	–	–
